Active and inactive are the calls of the source. The rule behind the calls is not given here.
Key:
[1] = biological target: T1, Alpha-ketoglutarate-dependent dioxygenase alkB homolog 3 (Homo sapiens, UniProt Q96Q83); assay: Inhibition of recombinant human AlkBH3 assessed as reduction in formaldehyde release using 40-mer single N3-meC as substrate incubated for 60 mins followed by substrate addition measured after 15 mins by fluorescence assay
T1 sequence (Q96Q83 whole entry): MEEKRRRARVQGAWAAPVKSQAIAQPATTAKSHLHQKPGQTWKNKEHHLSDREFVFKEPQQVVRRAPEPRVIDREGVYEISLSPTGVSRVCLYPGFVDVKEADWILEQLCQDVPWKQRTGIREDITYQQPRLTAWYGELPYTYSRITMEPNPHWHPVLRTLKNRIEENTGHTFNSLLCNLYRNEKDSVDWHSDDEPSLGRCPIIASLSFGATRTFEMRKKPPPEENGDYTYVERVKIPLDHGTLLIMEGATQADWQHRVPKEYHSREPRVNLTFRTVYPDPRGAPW

[2] = biological target: T2, Alpha-ketoglutarate-dependent dioxygenase alkB homolog 3 (Homo sapiens) (UniProt Q96Q83); assay: Inhibition of recombinant human AlkBH3 assessed as reduction in formaldehyde release at 50 uM using 40-mer single N3-meC as substrate incubated for 60 mins followed by substrate addition measured after 15 mins by fluorescence assay
T2 sequence (whole entry): T1 sequence (Q96Q83 whole entry)

A549 [3] = assay: Cytotoxicity against human A549 cells assessed as decrease in cell viability at 1 uM after 12 to 60 mins by MTT assay; format: functional, cell-based
[4] = biological target: T2, Alpha-ketoglutarate-dependent dioxygenase alkB homolog 3 (Homo sapiens); assay: Binding affinity to recombinant human AlkBH3 at 12 uM after 1 hr by far-UV circular dichroism spectroscopy
[5] = biological target: T1, Alpha-ketoglutarate-dependent dioxygenase alkB homolog 3; assay: Binding affinity to recombinant human AlkBH3 incubated for 2 mins by isothermal titration calorimetric method
[6] = biological target: T2, Alpha-ketoglutarate-dependent dioxygenase alkB homolog 3 (Homo sapiens); assay: Competitive inhibition of recombinant human AlkBH3 assessed as reduction in formaldehyde release at 50 to 500 uM using 40-mer internal N3me-oligo-dC as substrate incubated for 60 mins followed by substrate addition measured after 15 mins by Lineweaver-Burk plot analysis
A549 [7] = assay: Cytotoxicity against human A549 cells assessed as decrease in cell viability after 48 to 72 hrs by MTT assay; format: functional, cell-based
[8] = biological target: T2, Alpha-ketoglutarate-dependent dioxygenase alkB homolog 3 (Homo sapiens); assay: Mixed type inhibition of recombinant human AlkBH3 assessed as reduction in formaldehyde release at 50 to 500 uM using varying levels of 2OG as substrate incubated for 60 mins followed by substrate addition measured after 15 mins by Lineweaver-Burk plot analysis
[9] = biological target: T2, Alpha-ketoglutarate-dependent dioxygenase alkB homolog 3 (Homo sapiens); assay: Inhibition of AlkBH3 in human A549 cells assessed as increase in MMS-induced cytotoxicity at 1 uM after 48 hrs by MTT assay; format: cell-based
[10] = biological target: T2, Alpha-ketoglutarate-dependent dioxygenase alkB homolog 3 (Homo sapiens); assay: Binding affinity to recombinant human AlkBH3 at 12 uM after 1 hr by near-UV circular dichroism spectroscopy
A549 [11] = assay: Cytotoxicity against human A549 cells assessed as decrease in cell viability at 500 uM after 48 to 72 hrs by MTT assay; format: functional, cell-based

Row | SMILES | IC50 [1] | other results
1 | COc1ccc(C2=C(Cl)C(=O)c3ccc(-c4ccc(C)cc4)cc32)cc1 | 9.8 µM | Activity (A549 [3]): Active; inhibition [2]: Active; Activity [4]: Active; Kd [5]: 7.81 µM; inhibition [6]: Active; Activity (A549 [7]): Dose-dependent effect; IC50 (A549 [7]): 18 µM; inhibition [8]: Active; inhibition [9]: Active; Activity [10]: Active
2 | Cc1ccc2c(c1)C(c1ccccc1)=C(Br)C2=O | > 50 µM | 
3 | Cc1ccc(C2=C(c3ccc(C)cc3)c3cc(C)ccc3C2=O)cc1 | > 50 µM | 
4 | Cc1ccc2c(c1)C(c1ccccc1)=C(c1ccccc1)C2=O | > 50 µM | 
5 | COc1ccc(C2=C(c3ccc(OC)cc3)c3cc(C)ccc3C2=O)cc1 | > 50 µM | 
6 | COc1ccc(C2=C(Cl)C(=O)c3ccc(C)cc32)cc1 | > 50 µM | Activity (A549 [3]): inactive; Activity (A549 [11]): inactive; inhibition [9]: inactive
7 | COc1ccc(C2=C(c3cc(OC)cc(OC)c3)C(=O)c3ccc(C)cc32)cc1 | > 50 µM | 
8 | COc1ccc(C2=C(Br)C(=O)c3ccc(C)cc32)cc1OC | > 50 µM | 
9 | COc1ccc(C2=C(Br)C(=O)c3ccc(C)cc32)cc1 | 43.2 µM | 
10 | Cc1ccc(C2=C(Br)C(=O)c3ccc(C)cc32)cc1 | > 50 µM | 
11 | COc1ccc(C2=C(c3cc(OC)cc(OC)c3)c3cc(C)ccc3C2=O)cc1 | > 50 µM | 
12 | COc1cc(OC)cc(C2=C(Br)C(=O)c3ccc(C)cc32)c1 | > 50 µM | 
13 | Cc1ccc2c(c1)C(c1ccc(Cl)c(Cl)c1)=C(c1ccc(Cl)c(Cl)c1)C2=O | 32.3 µM | inhibition [2]: Active
14 | Cc1ccc2c(c1)C(c1cccc3ccccc13)=C(Br)C2=O | > 50 µM | 

Further lines, with some results ahead:

Row | IC50 [1] | SMILES | other results
15 | > 50 µM | COc1ccc(C2=C(c3ccc(OC)c(OC)c3)c3cc(-c4ccccc4)ccc3C2=O)cc1OC | 
16 | 13.1 µM | COc1cccc(C2=C(c3cccc(OC)c3)c3cc(-c4ccc(C)cc4)ccc3C2=O)c1 | inhibition [2]: Active
17 | > 50 µM | COc1cccc(C2=C(c3cccc(OC)c3)c3cc(C)ccc3C2=O)c1 | 
18 | > 50 µM | COc1ccc(C2=C(c3cc(OC)cc(OC)c3)C(=O)c3ccc(-c4ccc(C)cc4)cc32)cc1 | 
19 | > 50 µM | O=C1C(c2ccccc2)=C(c2ccccc2)c2cc(-c3ccccc3)ccc21 | 
20 | > 50 µM | COc1ccc(C2=C(c3ccc(OC)c(OC)c3)c3cc(C)ccc3C2=O)cc1OC | 
21 | > 50 µM | COc1ccc(C2=C(c3cc(OC)cc(OC)c3)C(=O)c3ccc(-c4ccccc4)cc32)cc1 | 
22 | > 50 µM | COc1cccc(C2=C(c3cccc(OC)c3)c3cc(-c4ccccc4)ccc3C2=O)c1 | 
23 | > 50 µM | COc1ccc(C2=C(Cl)C(=O)c3ccc(-c4ccccc4)cc32)cc1 | Activity (A549 [3]): inactive; IC50 (A549 [7]): 370 µM; inhibition [9]: inactive
24 | > 50 µM | COc1ccc(C2=C(c3ccc(OC)c(OC)c3)c3cc(-c4ccc(C)cc4)ccc3C2=O)cc1OC | 
25 | > 50 µM | COc1ccc(C2=C(c3ccc(OC)cc3)c3cc(-c4ccccc4)ccc3C2=O)cc1 | 
